Like-named read-outs stand apart in the source and are kept apart here. Values belong to the molecule of their own block, whether it stands above or below them.
Assays:
[1] = Plasma pharmacokinetics in vivo; conditions: SD, rat, rats
Experimental: SD rats (n = 6) were intragastrically administered Cbz-dFdC (22 mg/kg) and intravenously injected with dFdC (15 mg/kg), and 150 μL blood samples were collected from the retro-orbital route in the right eye at 0, 5, 10, 20, and 30 min and at 1, 2, 4, 6, 12, 24, and 48 h, using heparinized tubes. Without delay, the blood was directly centrifuged at 8000× g at 4 °C for 5 min. Then, the supernatant plasma was collected and immediately extracted using a previously established method or was frozen at −80 °C until further analysis.

[2] = Tissue distribution (liver, kidney, intestine); type: in vivo, SD rats; conditions: rats; drug concentration in tissue lower than plasma concentration
Experimental: In order to investigate the drug distribution in different tissues and the relationship between CES1 activity and tissue concentration, we conducted tissue distribution experiments. The SD rats were divided into six groups (n = 6 for each group). After a single intragastric administration of Cbz-dFdC (22 mg/kg) and a single injected administration of dFdC (15 mg/kg), the SD rats were sacrificed at 0.5 h, 1.5 h, and 4 h, and the liver, kidney, and intestine were collected. The liver was perfused with ice-cold normal saline and then removed, followed by ice-cold normal saline cleaning. The kidney and intestine were directly removed and then washed with ice-cold normal saline. All of the above operations were carried out on ice, and the removed tissue was stored in an ice bath. The liver, kidney, and intestine were cut and crushed, homogenized with an appropriate amount of phosphate buffer by a homogenizer, and then diluted 5 times with ice-cold PBS buffer (in an ice bath). The tissue homogenates were determined with a BCA kit for protein concentration, a CES1 kit for CES1 activity, and UFLC–MS/MS for drug tissue concentration after pretreatment; the pretreatment method was reported previously.

human HepG2 cell line = assay: CCK-8 tumor cell growth inhibition assay; type: cell-based; conditions: HepG2, CCK-8, concentration-dependent
Experimental: (§1) The cells were cultured on a 96-well plate for 4 h for each well. Then, dimethyl sulfoxide solution containing 0.1–100 mM of Cbz-dFdC and dFdC was diluted 1000 times with the medium before administration. A total of 200 uL of medium containing Cbz-dFdC and dFdC was added per well (n = 6). The medium with drugs was discarded, and 10% CCK-8 solution was added. Then, the absorbance value was read at a wavelength of 450 nm after incubation at 37 °C, for 30 min. The drug concentration of Cbz-dFdC and dFdC in cell were determined by a previously established method.

HepG2 cells = assay: Cell uptake in HepG2 cells; type: cell-based, human
Experimental: as §1

[3] = design: method as in PMID 22099048; conditions: humans, after intravenous injection; cited from earlier work
[4] = design: method as in PMID 22099048; conditions: rats, after intravenous injection; cited from earlier work
[5] = design: method as in PMID 22099048; conditions: cited from earlier work
cytidine kinase = test system: cytidine kinase; design: method as in PMID 1718594, PMID 1740680, PMID 8033147, PMID 12127861, PMID 23230131; conditions: after intravenous injection; cited from earlier work
[6] = substrate: O=C(Nc1ccn([C@@H]2O[C@H](CO)[C@@H](O)C2(F)F)c(=O)n1)OCc1ccccc1; assay: Enzymatic kinetics in vitro, human CES1 recombinase; type: in vitro ADME; conditions: other: Human CES1 Recombinase, 37 °C, 30 min, 5–200 μM Cbz-dFdC
Experimental: The SD rats without any treatment were sacrificed after adapting to the environment. Blank blood, the liver, the kidney, and the intestine were collected and treated as described in Section 4.4. Part of the homogenate was removed for centrifugation for 20 min at 9000× g at 4 °C, and the supernatant was obtained as tissue S9. The tissue homogenate and S9 were diluted to […] after the protein concentration was determined by the BCA kit (Abcam, Cambridge, MA, USA). Each matrix consisted of 45 uL of the matrix mixed with 5 uL of the drug dissolved in normal saline solution for about 3 min, followed by incubation at 37 °C in a water bath. Then, acetonitrile containing the internal standard was added to terminate the reaction. Human tissue S9 and human CES1 recombinase purchased from the Ruid Liver Disease Research Co., Ltd. (Shanghai, China) were incubated under the same conditions. An enzyme kinetic study was obtained from the matrix following incubation at 37 °C for 30 min with 5, 10, 20, 50, 100, or 200 μM of Cbz-dFdC. We estimated the parameters and simulated curves according to the Eadie–Hofstee method.

[7] = iv, plasma, after i.v. dFdC 15 mg/kg
[8] = plasma, 15 mg/kg, after dFdC intravenous injection
[9] = plasma, oral, 22 mg/kg, dFdC metabolized from Cbz-dFdC after i.g. Cbz-dFdC
[10] = po, plasma analyte after i.g. Cbz-dFdC 22 mg/kg

AUC(0-inf) [1, 7]: 22700 ng·h/mL | Cmax [1, 7]: 14100 ng/mL | Tmax [1, 7]: 0.083 h | half-life [1, 7]: 10.6 ± 1.86 h | concentration at 12 h [1, 8]: ~200 ng/mL | concentration at 48 h [1, 8]: ~40 ng/mL | concentration at 24 h ([1]; plasma, intravenous, after i.v. dFdC 15 mg/kg): ~130 ng/mL | C0 ([1]; plasma, iv, after i.v. dFdC 15 mg/kg, read-out: initial plasma concentration): ~15000 ng/mL | concentration at 24 h ([1]; plasma, oral, 22 mg/kg, after i.g. Cbz-dFdC): ~300 ng/mL | concentration at 12 h [1, 9]: ~600 ng/mL | concentration at 48 h [1, 9]: ~130 ng/mL | AUC(0-inf) [1, 10]: 27500 ng·h/mL | Cmax [1, 10]: 1660 ± 432 ng/mL | Tmax [1, 10]: 4 h | half-life [1, 10]: 10.4 ± 0.91 h | tissue penetration [2]: weak tissue penetration
Molecule: Nc1ccn([C@@H]2O[C@H](CO)[C@@H](O)C2(F)F)c(=O)n1 [dFdC, Gemcitabine]
cytotoxicity / tumor cell growth inhibition (human HepG2 cell line): better than that of Cbz-dFdC | intracellular concentration (cell uptake) (HepG2 cells): higher than that of dFdC, after the Cbz-dFdC treatment | half-life [3]: 0.2 h | half-life [4]: 2.0 h | toxic effects on the gastrointestinal tract [5]: serious toxic effects on the gastrointestinal tract | active monophosphate, diphosphate and triphosphate metabolites, share of the dose (cytidine kinase): about 10%

B1: Human CES1 Recombinase (Homo sapiens) (protein)
chain: GHPSSPPVVDTVHGKVLGKFVSLEGFAQPVAIFLGIPFAKPPLGPLRFTPPQPAEPWSFVKNATSYPPMCTQDPKAGQLLSELFTNRKENIPLKLSEDCLYLNIYTPADLTKKNRLPVMVWIHGGGLMVGAASTYDGLALAAHENVVVVTIQYRLGIWGFFSTGDEHSRGNWGHLDQVAALRWVQDNIASFGGNPGSVTIFGESAGGESVSVLVLSPLAKNLFHRAISESGVALTSVLVKKGDVKPLAEQIAITAGCKTTTSAVMVHCLRQKTEEELLETTLKMKFLSLDLQGDPRESQPLLGTVIDGMLLLKTPEELQAERNFHTVPYMVGINKQEFGWLIPMQLMSYPLSEGQLDQKTAMSLLWKSYPLVCIAKELIPEATEKYLGGTDDTVKKKDLFLDLIADVMFGVPSVIVARNHRDAGAPTYMYEFQYRPSFSSDMKPKTVIGDHGDELFSVFGAPFLKEGASEEEIRLSKMVMKFWANFARNGNPNGEGLPHWPEYNQKEGYLQIGANTQAAQKLKDKEVAFWTNLFAKKAVEKPPQTEHIEL
notes: purchased Ruid Liver Disease Research Co., Ltd. (Shanghai, China)
Km ([6]; appearance of dFdC): 107.2 µM | Vmax/Km ([6]; appearance of dFdC): 36500 µL/min/mg | Km ([6]; disappearance of Cbz-dFdC): 258.6 µM | Vmax/Km ([6]; disappearance of Cbz-dFdC): 72700 µL/min/mg
